# In US20120083522A1, “MODULATION OF INFLAMMATORY RESPONSES BY FACTOR XI” (Isis Pharmaceuitcals, inc., priority 2009, published 2012):
# In the oligonucleotide strings, read from the 5' end, every base follows the letter of its sugar. An asterisk marks phosphorothioate; unmarked linkages are phosphodiester. Other units and linkages are bracketed, terminal groups are in braces. A string of capitals states the bases alone. e = 2'-O-(2-methoxyethyl) (MOE); [5mC] = 5-methylcytosine; d = 2'-deoxy (DNA)
# How the values were obtained:
# Type in all cases: in vivo
# [1] = Tolerability in Sprague-Dawley rats: kidney function (Example 19); details: Sprague-Dawley rats, plasma, 50 mg/kg s.c. twice per week for 6 weeks
# Description: (§1) Urine samples were taken before the start of treatment.
# [2] = Tolerability in CD1 mice: kidney function (Example 17); details: plasma, 50 mg/kg s.c. twice a week
# Description: Results are presented in Tables 62 and 63, expressed in mg/dL.
# [3] = Tolerability in CD1 mice: liver function (Example 17); set-up: Albumin: unit not given here; details: plasma, 50 mg/kg s.c. twice a week
# [4] = Tolerability in CD1 mice: hematology assays (Example 17); details: for lymphocyte count / monocyte count / neutrophil count: percent of total blood cell count; for HCT / MCH / MCHC / MCV / WBC count: blood, 50 mg/kg s.c. twice a week
# Description: A control group of five mice was injected subcutaneously with PBS for 2 weeks. All experimental groups (i.e. ASO treated mice at 2, 4, 6 weeks) were compared to the control group (i.e. PBS, 2 weeks).
# Blood obtained from all mice groups were sent to Antech Diagnostics for hematocrit (HCT), mean corpuscular volume (MCV), mean corpuscular hemoglobin (MCH), and mean corpuscular hemoglobin concentration (MCHC) measurements and analyses, as well as measurements of the various blood cells, such as WBC (neutrophils, lymphocytes, and monocytes), RBC, and platelets, and total hemoglobin content. Percentages given in the tables indicate the percent of total blood cell count.
# [5] = Tolerability in Sprague-Dawley rats: hematology assays (Example 19); details: 50 mg/kg s.c. twice per week for 6 weeks
# [6] = as above; details: 50 mg/kg s.c. twice per week for 6 weeks; remark: listed apart in the source
# Description: as §1
# [7] = Tolerability in Sprague-Dawley rats: liver function (Example 19); details: plasma, 50 mg/kg s.c. twice per week for 6 weeks
# Description: as §1
sequence,measurement,setting,value
"ATGCCCTTCATGTCTAGGTC (all C 5-methyl, all phosphorothioate, sugars by position not given here; MOE gapmer) [ISIS 416826, 5-10-5 MOE gapmer]",BUN,[1],25 mg/dL
same,creatinine,[1],6 mg/dL
same,BUN,[2]; 2 weeks,24 mg/dL
same,creatinine,[2]; 2 weeks,0.15 mg/dL
same,BUN,[2]; 4 weeks,34 mg/dL
same,creatinine,[2]; 4 weeks,0.20 mg/dL
same,BUN,[2]; 6 weeks,27 mg/dL
same,creatinine,[2]; 6 weeks,0.15 mg/dL
same,ALT,[3]; 2 weeks,182 IU/L
same,AST,[3]; 2 weeks,274 IU/L
same,Albumin,[3]; 2 weeks,3.3
same,Bilirubin,[3]; 2 weeks,0.39 mg/dL
same,ALT,[3]; 4 weeks,126 IU/L
same,AST,[3]; 4 weeks,156 IU/L
same,Albumin,[3]; 4 weeks,3.4
same,Bilirubin,[3]; 4 weeks,0.20 mg/dL
same,ALT,[3]; 6 weeks,1954 IU/L
same,AST,[3]; 6 weeks,1411 IU/L
same,Albumin,[3]; 6 weeks,3.4
same,Bilirubin,[3]; 6 weeks,0.37 mg/dL
same,RBC count,[4]; 2 weeks,8 cells/pL
same,hemoglobin content,[4]; 2 weeks,13.4 g/dL
same,platelet count,[4]; 2 weeks,1498 cells/nL
same,lymphocyte count,[4]; 2 weeks,70%
same,monocyte count,[4]; 2 weeks,3%
same,neutrophil count,[4]; 2 weeks,26%
same,RBC count,[4]; 4 weeks,8 cells/pL
same,hemoglobin content,[4]; 4 weeks,12.8 g/dL
same,platelet count,[4]; 4 weeks,970 cells/nL
same,lymphocyte count,[4]; 4 weeks,61%
same,monocyte count,[4]; 4 weeks,5%
same,neutrophil count,[4]; 4 weeks,33%
same,RBC count,[4]; 6 weeks,7 cells/pL
same,hemoglobin content,[4]; 6 weeks,11.0 g/dL
same,platelet count,[4]; 6 weeks,645 cells/nL
same,lymphocyte count,[4]; 6 weeks,67%
same,monocyte count,[4]; 6 weeks,8%
same,neutrophil count,[4]; 6 weeks,23%
same,HCT,[4]; 2 weeks,47%
same,MCH,[4]; 2 weeks,17 pg
same,MCHC,[4]; 2 weeks,29%
same,MCV,[4]; 2 weeks,56 fL
same,WBC count,[4]; 2 weeks,5 cells/nL
same,HCT,[4]; 4 weeks,41%
same,MCH,[4]; 4 weeks,16 pg
same,MCHC,[4]; 4 weeks,31%
same,MCV,[4]; 4 weeks,52 fL
same,WBC count,[4]; 4 weeks,6 cells/nL
same,HCT,[4]; 6 weeks,37%
same,MCH,[4]; 6 weeks,16 pg
same,MCHC,[4]; 6 weeks,30%
same,MCV,[4]; 6 weeks,53 fL
same,WBC count,[4]; 6 weeks,8 cells/nL
same,Monocytes,[5],7%
same,Neutrophils,[5],30%
same,Platelets,[5],11 10^3/μL
same,RBC,[5],5 pL⁻¹
same,WBC,[5],7 nL⁻¹
same,HCT,[5]; title says % control,7%
same,Hemoglobin,[5]; title says % control,7 g/dL
same,MCHC,[5]; title says % control,4%
same,MCV,[5]; title says % control,6 fL
same,Lymphocytes,[6],5%
same,MCH,[6]; title says % control,3 pg
same,ALT,[7],611 IU/L
same,AST,[7],104 IU/L
same,Albumin,[7],6 mg/dL
same,Bilirubin,[7],115 mg/dL
GCCCTTCATGTCTAGGTCCA [ISIS 416825] (eG*e[5mC]*e[5mC]*e[5mC]*eT*dT*d[5mC]*dA*dT*dG*dT*d[5mC]*dT*dA*dG*eG*eT*e[5mC]*e[5mC]*eA) [5-10-5 MOE gapmer],BUN,[1]; 50 mg/kg,7 mg/dL
same,creatinine,[1]; 50 mg/kg,17 mg/dL
same,BUN,"[2]; 2 weeks, 50 mg/kg",29 mg/dL
same,creatinine,"[2]; 2 weeks, 50 mg/kg",0.14 mg/dL
same,BUN,"[2]; 4 weeks, 50 mg/kg",35 mg/dL
same,creatinine,"[2]; 4 weeks, 50 mg/kg",0.21 mg/dL
same,creatinine,[2]; 6 weeks,0.17 mg/dL
same,BUN,"[2]; 6 weeks, 50 mg/kg",31 mg/dL
same,ALT,"[3]; 2 weeks, 50 mg/kg",64 IU/L
same,AST,"[3]; 2 weeks, 50 mg/kg",82 IU/L
same,Albumin,"[3]; 2 weeks, 50 mg/kg",3.6
same,Bilirubin,"[3]; 2 weeks, 50 mg/kg",0.41 mg/dL
same,ALT,"[3]; 4 weeks, 50 mg/kg",314 IU/L
same,AST,"[3]; 4 weeks, 50 mg/kg",239 IU/L
same,Albumin,"[3]; 4 weeks, 50 mg/kg",3.4
same,Bilirubin,"[3]; 4 weeks, 50 mg/kg",0.69 mg/dL
same,ALT,"[3]; 6 weeks, 50 mg/kg",507 IU/L
same,AST,"[3]; 6 weeks, 50 mg/kg",301 IU/L
same,Albumin,"[3]; 6 weeks, 50 mg/kg",3.5
same,Bilirubin,"[3]; 6 weeks, 50 mg/kg",0.29 mg/dL
same,RBC count,[4]; 2 weeks,9 cells/pL
same,hemoglobin content,[4]; 2 weeks,14.5 g/dL
same,platelet count,[4]; 2 weeks,1689 cells/nL
same,lymphocyte count,[4]; 2 weeks,82%
same,monocyte count,[4]; 2 weeks,2%
same,neutrophil count,[4]; 2 weeks,15%
same,RBC count,[4]; 4 weeks,9 cells/pL
same,hemoglobin content,[4]; 4 weeks,14.1 g/dL
same,platelet count,[4]; 4 weeks,1229 cells/nL
same,lymphocyte count,[4]; 4 weeks,53%
same,monocyte count,[4]; 4 weeks,5%
same,neutrophil count,[4]; 4 weeks,43%
same,RBC count,[4]; 6 weeks,8 cells/pL
same,hemoglobin content,[4]; 6 weeks,12.1 g/dL
same,platelet count,[4]; 6 weeks,942 cells/nL
same,lymphocyte count,[4]; 6 weeks,71%
same,monocyte count,[4]; 6 weeks,4%
same,neutrophil count,[4]; 6 weeks,23%
same,HCT,"[4]; 2 weeks, 50 mg/kg",49%
same,MCH,"[4]; 2 weeks, 50 mg/kg",17 pg
same,MCHC,"[4]; 2 weeks, 50 mg/kg",29%
same,MCV,"[4]; 2 weeks, 50 mg/kg",58 fL
same,WBC count,"[4]; 2 weeks, 50 mg/kg",8 cells/nL
same,MCH,[4]; 4 weeks,16 pg
same,WBC count,[4]; 4 weeks,8 cells/nL
same,HCT,"[4]; 4 weeks, 50 mg/kg",46%
same,MCHC,"[4]; 4 weeks, 50 mg/kg",31%
same,MCV,"[4]; 4 weeks, 50 mg/kg",53 fL
same,HCT,"[4]; 6 weeks, 50 mg/kg",40%
same,MCH,"[4]; 6 weeks, 50 mg/kg",15 pg
same,MCHC,"[4]; 6 weeks, 50 mg/kg",31%
same,MCV,"[4]; 6 weeks, 50 mg/kg",51 fL
same,WBC count,"[4]; 6 weeks, 50 mg/kg",6 cells/nL
same,Platelets,[5]; 50 mg/kg,6 10^3/μL
same,WBC,[5]; 50 mg/kg,22 nL⁻¹
same,HCT,"[5]; title says % control, 50 mg/kg",2%
same,MCV,"[5]; title says % control, 50 mg/kg",4 fL
same,Lymphocytes,[6]; 50 mg/kg,3%
same,Monocytes,[6]; 50 mg/kg,15%
same,Neutrophils,[6]; 50 mg/kg,25%
same,RBC,[6]; 50 mg/kg,2 pL⁻¹
same,MCH,[6]; title says % control,2 pg
same,Hemoglobin,"[6]; title says % control, 50 mg/kg",2 g/dL
same,MCHC,"[6]; title says % control, 50 mg/kg",4%
same,ALT,[7]; 50 mg/kg,89 IU/L
same,AST,[7]; 50 mg/kg,17 IU/L
same,Albumin,[7]; 50 mg/kg,2 mg/dL
same,Bilirubin,[7]; 50 mg/kg,4 mg/dL
